The values below come from publication PMC6616570, “Discovery of novel oestrogen receptor α agonists and antagonists by screening a revisited privileged structure moiety for nuclear receptors” (Scientific Reports, 2019).

Structures are written as SMILES. “Also recorded” adds a separate entry of the source. Like-named read-outs stand apart in the source and are kept apart here.

In general, IC50 refers to the point on the concentration scale where inhibition reaches its midpoint.

The target in experiment [1] is T1, ERα (Homo sapiens, UniProt P03372).
T1 construct: the ERα LBD was amplified by polymerase chain reaction and subcloned into the pGEX-6P-1 vector; made in house; host or cells: Escherichia coli BL21α
T1 sequence (P03372 311-547 limits assumed): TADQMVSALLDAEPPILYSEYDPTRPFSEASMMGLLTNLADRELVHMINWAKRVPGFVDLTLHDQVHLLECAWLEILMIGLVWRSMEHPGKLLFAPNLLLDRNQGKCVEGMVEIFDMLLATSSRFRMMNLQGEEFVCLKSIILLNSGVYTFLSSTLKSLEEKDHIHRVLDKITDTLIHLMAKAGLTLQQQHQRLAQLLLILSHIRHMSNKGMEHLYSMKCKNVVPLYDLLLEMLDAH
Description: Competitive binding assay using [3H]E2 against GST-fused ERα LBD. The source says: The ERα cDNA clone was purchased from OriGene Technologies, Inc. (Rockville, MD, USA). For construction of the expression plasmid, the ERα LBD was amplified by polymerase chain reaction and subcloned into the pGEX-6P-1 vector (GE Healthcare, Chicago, IL, USA) to obtain as a GST-fused protein. The GST-fused ERα -LBD was expressed in Escherichia coli BL21α cells and purified using Glutathione-Sepharose 4B (GE Healthcare), followed by gel filtration on a Sephadex G-10 column (GE Healthcare).
We performed the radioligand binding assays for ERα according to previously reported by method. […] GST-ERα-LBD (20 ng) was incubated with a series of [^3H]E2 (0.1–30 nM) in a total volume of 100 μL of binding buffer [10% glycerol, 10 mM Tris, 1 mM EGTA, 1 mM EDTA, 1 mM sodium vanadate (V), 0.5 mM phenylmethylsulfonyl fluoride, and 0.2 mM leupeptin (pH 7.4)] for 2 h at 20 °C in order to estimate total binding. Specific binding was calculated by subtracting the nonspecific binding determined by addition of 10 μM non-radiolabeled E2 to another set of working solutions from the observed total binding. After incubation, free radioligand was removed by addition and incubation of 100 μL 0.4% dextran-coated charcoal (Sigma-Aldrich) in phosphate-buffered saline (PBS; pH 7.4) on ice for 10 min. After centrifugation for 10 min at 15,000 rpm, the radioactivity of each supernatant was measured using a liquid scintillation counter (LS6500; Beckman Coulter, Fullerton, CA, USA). The data of the calculated specific binding of [^3H]E2 were assessed by Scatchard plot analysis.
The binding affinities of the test compounds were evaluated by competitive binding assays. Each chemical was dissolved in DMSO to prepare a 1.0-mM stock solution, followed by subsequent incubation of serial dilutions (1 pM to 10 μM) with GST- ERα-LBD (20 ng) and [^3H]E2 (5 nM, final) for 2 hrs at 20 °C to assess their ability to hinder the binding of [^3H]E2. Free radioligand was absorbed by 0.4% dextran-coated charcoal for the saturation binding assay and removed by the vacuum filtration system using a 96-well filtration plate (MultiScreenHTS HV; […] pore size; Merck KGaA, Darmstadt, Germany). The radioactivities of the eluents were measured using a TopCount NXT system (PerkinElmer) for 3 min/well.

Experiment [2] addresses T2, ERα (Homo sapiens, UniProt P03372).
T2 construct: expressed in transfected cells; host or cells: HeLa cells
T2 sequence (P03372 1-595): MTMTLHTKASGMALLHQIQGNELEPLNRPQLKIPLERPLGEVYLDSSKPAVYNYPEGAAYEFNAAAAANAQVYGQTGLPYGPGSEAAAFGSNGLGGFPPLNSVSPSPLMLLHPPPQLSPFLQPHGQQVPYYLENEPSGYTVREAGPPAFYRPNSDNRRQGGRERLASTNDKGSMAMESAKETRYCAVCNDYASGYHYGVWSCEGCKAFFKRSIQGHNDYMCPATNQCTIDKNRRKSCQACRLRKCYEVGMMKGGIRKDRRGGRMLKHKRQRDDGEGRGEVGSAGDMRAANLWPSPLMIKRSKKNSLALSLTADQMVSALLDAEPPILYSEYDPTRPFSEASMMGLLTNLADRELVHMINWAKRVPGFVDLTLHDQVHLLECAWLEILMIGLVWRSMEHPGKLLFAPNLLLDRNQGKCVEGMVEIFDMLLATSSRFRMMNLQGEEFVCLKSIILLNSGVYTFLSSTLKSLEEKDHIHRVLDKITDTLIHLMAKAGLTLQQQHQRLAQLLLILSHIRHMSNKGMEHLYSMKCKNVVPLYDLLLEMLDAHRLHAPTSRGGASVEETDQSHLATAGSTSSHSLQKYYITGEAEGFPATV
Description: Luciferase-reporter assay for agonist activity in transiently transfected HeLa cells. Format: cell-based. The settings on record: for ERα agonist / transcriptional activity (in words): reporter-gene assay, 0.1-10 μM. The protocol:
HeLa cells were maintained in Eagle’s minimum essential medium (MEM; Nissui Pharmaceutical Co., Ltd, Tokyo, Japan) supplemented with 10% (v/v) foetal bovine serum treated with dextran-coated charcoal at 37 °C under 5% CO2. To analyse the agonist activity, HeLa cells were incubated at a density of 5 × 10^5 cells per 60-mm dish for 24 h, followed by transfection of 3 μg of the reporter plasmid (3 × ERE/pGL4.23) and 1 μg of the ERα expression plasmid (ERα/pcDNA3.1) using Lipofectamine LTX reagent (Thermo Fisher Scientific, Waltham, MA, USA) according to the manufacturer’s instructions. After 24 h, cells were harvested, suspended in Eagle’s MEM, and seeded into 96-well plates at 5 × 10^4 cells/well, followed by treatment with a series of the test compounds diluted with 1% bovine serum albumin (BSA)/PBS (v/v) to prepare different concentrations (0–10 μM). After a 24-h incubation, luciferase activity was measured using a Luciferase Assay system (Promega, Madison, WI, USA) according to the manufacturer’s instructions. […] Cells treated only with 1% BSA/PBS were used as a vehicle control. Each assay was performed in triplicate and repeated at least three times.
A general note: Reporter assays use an easily measured gene product as a stand-in for the process of interest.

The target in experiment [3] is T2, ERα. Description: Luciferase-reporter assay for antagonist activity in the presence of E2, HeLa cells. Format: cell-based. The settings on record: for ERα antagonist activity against E2-induced transcription (in words): 1 pM to 10 μM compound in a solution of E2 (1 nM); for reduction of E2-mediated ERα activity: highest concentration, 10 μM. The protocol: HeLa cells were maintained in Eagle’s minimum essential medium (MEM; Nissui Pharmaceutical Co., Ltd, Tokyo, Japan) supplemented with 10% (v/v) foetal bovine serum treated with dextran-coated charcoal at 37 °C under 5% CO2. To analyse the agonist activity, HeLa cells were incubated at a density of 5 × 10^5 cells per 60-mm dish for 24 h, followed by transfection of 3 μg of the reporter plasmid (3 × ERE/pGL4.23) and 1 μg of the ERα expression plasmid (ERα/pcDNA3.1) using Lipofectamine LTX reagent (Thermo Fisher Scientific, Waltham, MA, USA) according to the manufacturer’s instructions. After 24 h, cells were harvested, suspended in Eagle’s MEM, and seeded into 96-well plates at 5 × 10^4 cells/well, followed by treatment with a series of the test compounds diluted with 1% bovine serum albumin (BSA)/PBS (v/v) to prepare different concentrations (0–10 μM). After a 24-h incubation, luciferase activity was measured using a Luciferase Assay system (Promega, Madison, WI, USA) according to the manufacturer’s instructions. Briefly, cells were lysed using reporter lysis buffer (Promega), and luminescence was measured using a Wallace 1420 ARVOsx multilabel counter (PerkinElmer). Cells treated only with 1% BSA/PBS were used as a vehicle control. Each assay was performed in triplicate and repeated at least three times.
To evaluate antagonistic activity, we examined serial concentrations of test compounds (0–10 μM, final) in the presence of 1 nM or 10 nM concentrations of E2, which normally induces basal levels of ERα-related transcriptional activity.

The conditions of experiment [4]: contaminant of industrial BPA; cited from earlier work.
Where [5] appears, read: [3H][…] radioligand (5 nM), GST-ERα-LBD, mean ± SE, read-out: Binding affinity (IC50).
The mark [6] stands for this setting: [3H]17β-oestradiol radioligand (5 nM), GST-ERα-LBD, mean ± SE, read-out: Binding affinity (IC50).

Turning to `Oc1ccc(C(=C(Cl)Cl)c2ccc(O)cc2)cc1` [compound 1, bisphenol C], in experiment [1] (setting [5]), the IC50 turned out to be 2.81 ± 0.61 nM. Further, in experiment [2] (ERα reporter-gene assay), the “transcriptional activity relative to that of E2” value is on record as ~ 60%. In addition, the “ERα agonist / transcriptional activity (in words)” value in experiment [2] is “apparent agonistic activity”. Besides, the “ERα antagonist activity against E2-induced transcription (in words)” value (“ERα antagonist activity” below) in experiment [3] was “did not observe any antagonistic activity”.
`CC(C)CC(C)(c1ccc(O)cc1)c1ccc(O)cc1` [compound 2, 4,4′-(1,3-dimethylbuthylidene)bisphenol]: in experiment [4], the “estrogenic activity higher than laboratory grade BPA” value was 8 fold.
As for `CC(C)(c1ccc(O)cc1)c1cccc(C(C)(C)c2ccc(O)cc2)c1` [compound 7, bisphenol M], the IC50 in experiment [1] worked out at 56.8 ± 11.7 nM. For the same compound, in experiment [2], the “ERα agonist / transcriptional activity (in words)” value is “weak transcriptional activity”. Also, in experiment [2] (listed as BPM), the “ERα agonist / transcriptional activity (in words)” value is reported as “almost no ERα-specific transcriptional activity”. Besides, in experiment [3], the “ERα antagonist activity” value is recorded as “inhibited the agonist activity of 1 nM E2 in a dose-dependent manner” and the “reduction of E2-mediated ERα activity” value is on record as “up to 90%”.
Turning to `Oc1ccc(C2(c3ccc(O)cc3)CCCCC2)cc1` [compound 8, bisphenol Z], the IC50 in experiment [1] (setting [5]) was determined as 56.9 ± 0.6 nM. The “ERα agonist / transcriptional activity (in words)” value in experiment [2] was “apparent agonistic activity”.
Take `CC(C)(c1ccc(O)cc1)c1ccc(C(C)(c2ccc(O)cc2)c2ccc(O)cc2)cc1` [compound 10, α,α,α′-tris(4-hydroxyphenyl)-1-ethyl-4-isopropylbenzene]: in experiment [1] (setting [6]), the IC50 came to 61.7 ± 10.4 nM. For the same compound, in experiment [2], the “ERα agonist / transcriptional activity (in words)” value is “weak transcriptional activity; also recorded: almost no ERα-specific transcriptional activity”. In addition, in experiment [3], the “ERα antagonist activity” value is “inhibited the agonist activity of 1 nM E2 in a dose-dependent manner” and the “reduction of E2-mediated ERα activity” value was “up to 90%”.
In the case of `CC(C)(c1ccc(O)cc1)c1ccc(C(C)(C)c2ccc(O)cc2)cc1` [compound 11, bisphenol P], the IC50 in experiment [1] (setting [6]) is 176 ± 35 nM. In addition, the “ERα agonist / transcriptional activity (in words)” value in experiment [2] is given as “weak transcriptional activity”. Also, the “ERα agonist / transcriptional activity (in words)” value in experiment [2] (listed as BPP) was “almost no ERα-specific transcriptional activity”. Also, in experiment [3], the “ERα antagonist activity” value is “inhibited the agonist activity of 1 nM E2 in a dose-dependent manner” and the “reduction of E2-mediated ERα activity” value is reported as “up to 90%”.
As to `CCC(C)(c1ccc(O)cc1)c1ccc(O)cc1` [compound 12, bisphenol B], the IC50 in experiment [1] (setting [6]) was 195 ± 44 nM. Moreover, in experiment [2], the “ERα agonist / transcriptional activity (in words)” value is on record as “apparent agonistic activity”.
The like results for `CC(c1ccccc1)(c1ccc(O)cc1)c1ccc(O)cc1` [compound 13, bisphenol AP] were, in that order, 259 ± 41 nM and “apparent agonistic activity”.
The like results for `Nc1cc(C(c2ccc(O)c(N)c2)(C(F)(F)F)C(F)(F)F)ccc1O` [compound 15, 2,2-bis(3-amino-4-hydroxyphenyl)hexafluoropropane] were, in that order, 334 ± 112 nM and “apparent agonistic activity”.
Take `CC1(C)CC2(CC(C)(C)c3ccc(O)cc3O2)Oc2cc(O)ccc21` [compound 16, spirobicromane]: in experiment [1] (setting [6]), the concentration for half-maximal inhibition (IC50) turned out to be 366 ± 20 nM. Also, the “ERα agonist / transcriptional activity (in words)” value in experiment [2] is “weak transcriptional activity”. In experiment [3], the “ERα antagonist activity” value was “inhibited the agonist activity of 1 nM E2 in a dose-dependent manner” and the “reduction of E2-mediated ERα activity” value is on record as “up to 90%”.
For `Cc1cc(C(C)(C)c2ccc(C(C)(C)c3cc(C)c(O)c(C)c3)cc2)cc(C)c1O` [compound 18, α,α′-bis(4-hydroxy-3,5-dimethylphenyl)-1,4-diisopropylbenzene] the same measures were 733 ± 628 nM, “weak transcriptional activity”, “inhibited the agonist activity of 1 nM E2 in a dose-dependent manner” and “up to 90%”.
As for `Nc1ccc(Oc2ccc(C(c3ccc(Oc4ccc(N)cc4)cc3)(C(F)(F)F)C(F)(F)F)cc2)cc1` [compound 19, 2,2-bis[4-(4-aminophenoxy)phenyl]hexafluoropropane], the IC50 in experiment [1] (setting [6]) was 1030 ± 375 nM. In addition, the “ERα agonist / transcriptional activity (in words)” value in experiment [2] is given as “weak transcriptional activity”.
Consider `Oc1ccc(C2(c3ccc(O)cc3)c3ccccc3-c3ccccc32)cc1` [compound 22, 9,9-bis(4-hydroxyphenyl)fluorine], for which the IC50 in experiment [1] (setting [6]) is 2230 ± 202 nM. In addition, in experiment [1] (competitive binding assay using [3H]E2), the “binding to the ERα LBD (in words)” value is given as “directly binds to the ERα LBD”. Moreover, the “ERα agonist / transcriptional activity (in words)” value in experiment [2] is listed as “weak transcriptional activity”.
